Results on four compounds are retold here after patent US20230165970A1, “COMPOSITIONS AND METHODS FOR THE TREATMENT OF BACTERIAL INFECTIONS” (priority 2017, published 2023).

In brackets after ≈: the same amount, converted by molar mass. Read-outs that look alike come from different tables or passages of the source. *1 amine or outer side, *2 acyl side, *3 side chain or, on linkers, in order; H or OH if unused. Where a SMILES comes first, the peptide text is derived from it. Bridges are numbered along the chain shown (N, C = ends). Roman numbers before positions name the chains, in order. [ ]: non-standard residue; d: D form. The star is where a group is joined. X6 = C#CCOCCOCCOCCOCCCN1C[C@@H](C(=O)[*:1])[C@H](C(=O)[*:2])C1; Propargyl(OCH2CH2)4CO = C#CCOCCOCCOCCOCCC(=O)*; Aoc(2) = CCCCCC[C@H](N)C(=O)O; Nle = CCCC[C@H](N)C(=O)O; Dab = NCC[C@H](N)C(=O)O; azaGly = NNC(=O)O

One assay relates to A. baumannii AB5075. The assay can be described thus: A. baumannii lung infection model, lung CFU burden (C57Bl/6J mice). It is filed as in vivo, Acinetobacter baumannii. The conditions noted are these: 24 h time point; conjugates 50 mpk IP at t=−12 h and t=+1 h; AZM 25 mpk SC once at t=+1 h; n=5.
A further assay deals with Ab 19606 (COLhet^R). It is filed as cell-based, Acinetobacter baumannii. The conditions noted are these: media CA-MHB.
In a further assay the test system is Ab AB5075. It is filed as cell-based, Acinetobacter baumannii. A digest of the protocol: (§1)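 Strains are exposed to 8- or 12-step twofold compound dilutions, conjugates being assayed in RPMI B. For Pa LES431, parallel runs include 50% heat-inactivated FBS. Plates incubate overnight, 16-20 h at 35° C.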
The subject of the next assay is Pa 27853. It is filed as cell-based, Pseudomonas aeruginosa. A digest of the protocol:
as §1

In another assay the test system is Pa LES431. In kind it is cell-based, Pseudomonas aeruginosa. The method in brief:
as §1

The test system of the next assay is Pa PAO1. In kind it is cell-based, Pseudomonas aeruginosa. The method in brief: as §1
In another assay the test system is E. coli 25922. The note with it: 72 hours after bacterial challenge, N=3. On the procedure:
In vivo screening of selected compounds was accomplished in an E. coli bacteremia model (N=3). Efficacy was assessed in an animal model of infection using CD-1 mice by evaluating bacteremia in immune competent mice challenged with 2× the LD95 of E. coli 25922 (dosed qd, intraperitoneally (IP) at T+1 hour, survival endpoint).
Colistin (COL) and Int-17 were dosed at 0.3 mg/kg and Int-41 was dosed at 3.0 mg/kg. Percent survival was determined 72 hours after bacterial challenge. Compounds with MICs against E. coli 25922 of less than 4 μg/ml were evaluated in the bacteremia model.
Int-115 and Int-118 were evaluated for potency in a lethal model of bacteremia. […] Test articles were dissolved in 1× PBS and injected IV at a dose volume of 10 ml/kg one hour following bacterial challenge. Animals were monitored twice daily and mortality scored over three days.
CD-1 mice were used for bacteremia, C57BL/6J mice for endotoxemia. The endpoint was survival after three days for both models.

The test system of another assay is Kp 6951 (COL^R). In kind it is cell-based, Klebsiella pneumoniae. The method in brief: as §1
In the next assay the test system is Kp 10031. It is filed as cell-based, Klebsiella pneumoniae. A digest of the protocol:
as §1

In a further assay the test system is Kp 43816. In kind it is cell-based, Klebsiella pneumoniae. The method in brief:
as §1

Another assay relates to Ec AR0349 (mcr-1, COL^R). In kind it is cell-based, Escherichia coli. The note with it: media CA-MHB.
A further assay concerns Ec 25922 64X-1 (COL^R). It is filed as cell-based, Escherichia coli. The conditions noted are these: media CA-MHB.
The test system of another assay is Ec 25922. It is filed as cell-based, Escherichia coli. The method in brief: as §1
The test system of the next assay is Ec 2469. In kind it is cell-based, Escherichia coli. The method in brief:
as §1

For another assay, the system named is Ab 8990 (COL^R). In kind it is cell-based, Acinetobacter baumannii. A digest of the protocol: as §1
The test system of a further assay is Sa RN. In kind it is cell-based.
The subject of assay [1] is Ec COL^R LPS: colistin-resistant (MCR-1) strain (AR0349). As to the kind of experiment: Lethal mouse endotoxemia model (LD95 purified LPS IP). It is filed as in vivo, C57BL/6J mice. The conditions noted are these: (D) Endotoxemia (Ec COL^R LPS); 5 mg/kg IV, single, -1 hr; survival after three days. On the procedure:
Studies (B)-(D) shown in Table 22 summarizes the efficacy of compounds in lethal models of endotoxemia. In these models 6 week old C57I/6J immune competent mice (Jackson Laboratory) were challenged IP with purified lipopolysaccharide (LPS) in PBS at an LD95. For all studies, LPS was obtained from Sigma (catalog numbers in the table footnote) or were purified using a kit obtained from iNtRON Biotechnology Inc. (cat #17141). One hour prior to LPS challenge mice were dosed with test articles as indicated (Table 22). The results of these studies indicate that compounds are able to neutralize the lethal effects of LPS in a severe endotoxemia/sepsis model.
End point was survival after 3 days. Ec: E. coli 0111:B34, Sigma cat #L4130; Ab: Acinetobacter baumannii 5075; Kp: Klebsiella pneumonia 10, Sigma cat #L4268; Ng: Neisseria gonorrhoeae 19424; Ec 026:B86, Sigma cat #L2762; Pm: Proteus mirabilis, Sigma cat #SMB00704; Sm: Serratia marcescens, Sigma cat #L6016; Pa: Pseudomonas aeruginosa 10. […] Purified LPS used for all endotoxemia studies and if not denoted by a Sigma catalog number the LPS was purified in-house using an iNtRON #17141 purification kit. *Delayed death, at the time Fc only animals reached 100% mortality all Conjugate 41 mice were still alive.

Assay [2] deals with Ab AB58705 (COL^R) IpxD, mut. (no LPS). In kind it is cell-based, Acinetobacter baumannii. The note with it: media CA-MHB.

The term MIC denotes the least concentration at which growth counts as inhibited.

Procedure for A. baumannii AB5075: A. baumannii AB5075 was grown to log-phase in LB at 37° C., 200 rpm shaking. Bacteria were washed once with PBS via centrifugation at 4,000 rpm. Bacteria were adjusted to desired concentration in PBS.
Prior to infection, 8-week-old female C57BI/6J mice (Jackson Labs) were anesthetized with 100 mg/kg ketamine and 10 mg/kg xylazine. Using an otoscope, mice were infected directly into the trachea. For CFU burden studies mice were infected with 2×10^7 CFU in 30 μL PBS. At 24 h post-infection mice were sacrificed by CO2 and both lung lobes were harvested. Lungs were homogenized with 1 mm silica beads in 1 mL PBS using a MagNA Lyser (Roche). Homogenization was carried out at 6,000 rpm for 60 s and chilled on ice for 60 s in-between runs. Lung homogenate was diluted in PBS ranging from 10^−1 to 10^−8, plated on LB plates and incubated at 37° C. overnight. The next day. CFU were enumerated and surviving CFU calculated relative to weight of the lung. […] Conjugates or hIgG1 (50 mpk) were administered intraperitoneally at t=−12 h pre-infection and t=+1 h post-infection. Azithromycin (Fresenius-Kabi) was administered subcutaneously once at t=+1 h post-infection. Efficacy of ADC conjugates (50 mpk) was determined upon intratracheal infection of A. baumannii AB5075. For CFU burden studies, mice (n=5 per group) were infected with 3×10^7 bacteria, sacrificed and lung CFU burden determined at 24 h time point.

In the case of `CC[C@H]1OC(=O)[C@H](C)[C@@H](O[C@H]2C[C@@](C)(OC)[C@@H](O)[C@H](C)O2)[C@H](C)[C@@H](O[C@@H]2O[C@H](C)C[C@H](N(C)C)[C@H]2O)[C@](C)(O)C[C@@H](C)CN(C)[C@H](C)[C@@H](O)[C@]1(C)O` [azithromycin (AZM), azithromycin, reference compound], the “reduction of lung CFU burden” value with A. baumannii AB5075 is 0.76 logs.
For the compound `C#CCOCCOCCOCCOCCC(=O)N[C@@H](CCCCCC)C(=O)N[C@@H](CCN)C(=O)N[C@H](C(=O)N[C@@H](CCN)C(=O)N[C@H]1CCNC(=O)[C@H]([C@@H](C)O)NC(=O)[C@H](CCN)NC(=O)[C@H](CCN)NC(=O)[C@H](CC(C)C)NC(=O)[C@@H](Cc2ccccc2)NC(=O)[C@H](CCN)NC1=O)[C@@H](C)O` [Int-17] ({Propargyl(OCH2CH2)4CO}-[Aoc(2)][Dab]T[Dab][Dab][Dab][dF]L[Dab][Dab]T; lactam 5-C), the minimal inhibitory concentration (MIC) was 1 µg/mL (≈ 0.691 µM) against Ab 19606 (COLhet^R); 1 µg/mL (≈ 0.691 µM) in the assay on Ab AB5075; 2 µg/mL (≈ 1.38 µM) in the assay on Pa 27853; 1 µg/mL (≈ 0.691 µM) against Pa LES431; 4 µg/mL (≈ 2.76 µM) in the assay with Pa PAO1 (PAO1); more than 128 µg/mL against Kp 6951 (COL^R). Moreover, the minimum inhibitory concentration (MIC) with Kp 10031 was found to be 1 µg/mL (≈ 0.691 µM); in the assay with Kp 43816, 1 µg/mL (≈ 0.691 µM); against Ec AR0349 (mcr-1, COL^R), 16 µg/mL (≈ 11.1 µM); with Ec 25922 64X-1 (COL^R), 64 µg/mL (≈ 44.2 µM); in the assay on Ec 25922 it was 2 µg/mL (≈ 1.38 µM); in the assay on Ec 2469, 1 µg/mL (≈ 0.691 µM). In addition, the “% Survival (IP, QD)” value in the assay with E. coli 25922 (0.3 mg/kg IP qd at T+1 hour) is 100%. For the same compound, the “MIC E. coli ATCC 25922, No serum” value in the assay with Ec 25922 is 2 µg/mL (≈ 1.38 µM). In the assay on Ec 25922, the “MIC E. coli ATCC 25922, Serum” value worked out at 0.5 µg/mL (≈ 0.346 µM).
Turning to `C#CCOCCOCCOCCOCCCNC(=O)CN(CC(=O)N[C@@H](CCCC)C(=O)N[C@@H](CCN)C(=O)N[C@H](C(=O)N[C@@H](CCN)C(=O)N[C@H]1CCNC(=O)[C@H]([C@@H](C)O)NC(=O)[C@H](CCN)NC(=O)[C@H](CCN)NC(=O)[C@H](CC(C)C)NC(=O)[C@@H](Cc2ccccc2)NC(=O)[C@H](CCN)NC1=O)[C@H](O)CCC)C(=C)N[C@@H](CCCC)C(=O)N[C@@H](CCN)C(=O)N[C@H](C(=O)N[C@@H](CCN)C(=O)N[C@H]1CCNC(=O)[C@H]([C@@H](C)O)NC(=O)[C@H](CCN)NC(=O)[C@H](CCN)NC(=O)[C@H](CC(C)C)NC(=O)[C@@H](Cc2ccccc2)NO[C@H](CCN)NC1=O)[C@H](O)CCC` [Int-41], the MIC was 4 µg/mL (≈ 1.45 µM) in the assay on Ab 19606 (COLhet^R); 4 µg/mL (≈ 1.45 µM) against Ab AB5075; 128 µg/mL (≈ 46.3 µM) in the assay with Ab 8990 (COL^R); more than 128 µg/mL in the assay with Sa RN; 2 µg/mL (≈ 0.724 µM) with Pa 27853; 2 µg/mL (≈ 0.724 µM) against Pa LES431. In addition, the minimal inhibitory concentration (MIC) came out at 2 µg/mL (≈ 0.724 µM) in the assay with Pa PAO1 (PAO1); 16 µg/mL (≈ 5.79 µM) in the assay with Kp 6951 (COL^R); 4 µg/mL (≈ 1.45 µM) in the assay on Kp 10031; 4 µg/mL (≈ 1.45 µM) with Kp 43816; 4 µg/mL (≈ 1.45 µM) against Ec AR0349 (mcr-1, COL^R); 4 µg/mL (≈ 1.45 µM) against Ec 25922 64X-1 (COL^R). The MIC against Ec 25922 was determined as 4 µg/mL (≈ 1.45 µM); in the assay on Ec 2469, 2 µg/mL (≈ 0.724 µM). For the same compound, in the assay on E. coli 25922 (3.0 mg/kg IP qd at T+1 hour), the “% Survival (IP, QD)” value is given as 67%. Further, the “MIC E. coli ATCC 25922, No serum” value against Ec 25922 is 4 µg/mL (≈ 1.45 µM). In addition, the “MIC E. coli ATCC 25922, Serum” value in the assay with Ec 25922 is 1 µg/mL (≈ 0.362 µM).
Regarding `C#CCOCCOCCOCCOCCCN1C[C@@H](C(=O)N[C@@H](CCCC)C(=O)N[C@@H](CCN)C(=O)N[C@H](C(=O)NNC(=O)N[C@H]2CCNC(=O)[C@H]([C@@H](C)O)NC(=O)[C@H](CCN)NC(=O)[C@H](CCN)NC(=O)[C@H](CC(C)C)NC(=O)[C@@H](Cc3ccccc3)NC(=O)[C@H](CCN)NC2=O)[C@@H](C)O)[C@H](C(=O)N[C@@H](CCCC)C(=O)N[C@@H](CCN)C(=O)N[C@H](C(=O)NNC(=O)N[C@H]2CCNC(=O)[C@H]([C@@H](C)O)NC(=O)[C@H](CCN)NC(=O)[C@H](CCN)NC(=O)[C@H](CC(C)C)NC(=O)[C@@H](Cc3ccccc3)NC(=O)[C@H](CCN)NC2=O)[C@@H](C)O)C1` [Int-122] (I: [Nle][Dab]T[azaGly][Dab][Dab][dF]L[Dab][Dab]T / II: [Nle][Dab]T[azaGly][Dab][Dab][dF]L[Dab][Dab]T; lactam I:5-I:C, II:5-II:C; linker I:N-II:N via X6), the MIC with Ab 19606 (COLhet^R) was 2 µg/mL (≈ 0.763 µM); in the assay on Ab AB5075 (Ab AB5075, media CA-MHB), 2 µg/mL (≈ 0.763 µM); in the assay with Ab 8990 (COL^R) (Ab 8990 (COL^R), media CA-MHB) it was more than 128 µg/mL; with Sa RN it was more than 128 µg/mL; with Pa 27853 (Pa 27853, media CA-MHB), 4 µg/mL (≈ 1.53 µM); in the assay on Pa LES431 (Pa LES431 + FBS (50%, heat-inactivated), media CA-MHB), 8 µg/mL. For the same compound, the MIC in the assay with Pa LES431 (Pa LES431, media CA-MHB) worked out at 2 µg/mL (≈ 0.763 µM); against Pa PAO1 (Pa PAO1, media CA-MHB) it was 4 µg/mL (≈ 1.53 µM); against Kp 6951 (COL^R) (Kp 6951 (COL^R), media CA-MHB) it was 8 µg/mL (≈ 3.05 µM); against Kp 10031 (Kp 10031, media CA-MHB), 2 µg/mL (≈ 0.763 µM); with Kp 43816 (Kp 43816, media CA-MHB) it was 2 µg/mL (≈ 0.763 µM); in [2], 2 µg/mL (≈ 0.763 µM). For the same compound, the minimum inhibitory concentration (MIC) was 2 µg/mL (≈ 0.763 µM) in the assay on Ec AR0349 (mcr-1, COL^R); 2 µg/mL (≈ 0.763 µM) in the assay on Ec 25922 64X-1 (COL^R); 0.25 µg/mL in the assay on Ec 25922 (Ec 25922 + FBS (50%, heat-inactivated), media CA-MHB); 2 µg/mL (≈ 0.763 µM) with Ec 25922 (Ec 25922, media CA-MHB); 2 µg/mL (≈ 0.763 µM) against Ec 2469 (Ec 2469, media CA-MHB). The “% survival” value in assay [1] amounted to 80%.
